The numbers were not newly measured in US9393243B1 (priority 2015, dated 2016), which cites them from elsewhere.

Where a name gives a salt, the structure may show the parent alone. Read-outs that look alike come from different tables or passages of the source.

For data set [1] the following is noted: aqueous solutions, about 0.2 to about 1 weight percent.
For data set [2], the system named is a variety of bacterial pathogens. The settings on record: typical value; T. L. Ke et al. 2001.

As to `O=C(O)c1cn(C2CC2)c2cc(N3CCNCC3)c(F)cc2c1=O` [ciprofloxacin HCl], the figures for the “pH at which precipitation was observed” value in data set [1] (5° C.) and in data set [1] (room temperature) were “above 5” and “above 5.5”, respectively.
As to `O=C(O)c1cn(C2CC2)c2cc(N3CCNCC3)c(F)cc2c1=O` [ciprofloxacin, 1-cyclopropyl-6-fluoro-1,4-dihydro-4-oxo-7-(1-piperazinyl)-3-quinolinecarboxylic acid], the MIC90 result in data set [2] is listed as “around 0.5 μg/g”.
Consider gentamycin, for which the MIC90 result in data set [2] is on record as “around 10 μg/gm”.
